The source made the active and inactive calls. The calls are words filed in the database; no cut-off is given here.

Holding throughout (assay type): cell-based
Assay [1] has as its target Transient receptor potential cation channel subfamily A member 1 (Homo sapiens) (UniProt O75762). The experiment in a line: Agonist activity at human TRPA1 expressed in HEK293 cells assessed as increase in intracellular calcium level at 33 uM measured for 2.5 mins by Fluo-8-AM dye based fluorescence assay. A general note: Calcium flux is commonly read through the fluorescence of an indicator in the cells.

The target in assay [2] is T1, Short transient receptor potential channel 6 (Mus musculus, UniProt Q61143).
T1 sequence (Q61143 whole entry): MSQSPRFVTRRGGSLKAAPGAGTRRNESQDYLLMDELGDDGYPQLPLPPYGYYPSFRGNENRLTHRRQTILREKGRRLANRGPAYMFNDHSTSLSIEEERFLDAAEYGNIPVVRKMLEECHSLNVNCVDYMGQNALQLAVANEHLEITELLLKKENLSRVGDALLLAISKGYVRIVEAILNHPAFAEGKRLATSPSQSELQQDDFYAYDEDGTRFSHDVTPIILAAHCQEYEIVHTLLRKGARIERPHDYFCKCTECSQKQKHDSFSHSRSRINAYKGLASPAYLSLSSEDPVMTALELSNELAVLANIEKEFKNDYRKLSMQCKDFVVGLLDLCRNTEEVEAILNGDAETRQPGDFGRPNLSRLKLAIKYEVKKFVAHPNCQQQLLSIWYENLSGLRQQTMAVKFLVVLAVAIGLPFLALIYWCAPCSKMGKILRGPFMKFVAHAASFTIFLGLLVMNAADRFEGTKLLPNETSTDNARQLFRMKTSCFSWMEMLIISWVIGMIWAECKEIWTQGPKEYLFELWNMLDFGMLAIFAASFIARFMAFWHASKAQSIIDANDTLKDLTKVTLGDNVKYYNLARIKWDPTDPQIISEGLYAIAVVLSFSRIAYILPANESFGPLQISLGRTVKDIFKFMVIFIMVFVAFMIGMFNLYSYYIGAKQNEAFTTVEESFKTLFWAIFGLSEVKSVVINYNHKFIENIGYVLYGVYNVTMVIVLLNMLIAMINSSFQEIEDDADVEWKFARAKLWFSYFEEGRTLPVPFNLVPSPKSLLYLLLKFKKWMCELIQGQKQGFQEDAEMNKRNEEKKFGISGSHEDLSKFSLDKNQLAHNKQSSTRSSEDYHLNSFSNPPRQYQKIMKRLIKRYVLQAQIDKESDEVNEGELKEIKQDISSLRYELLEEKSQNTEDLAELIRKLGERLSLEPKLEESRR
The assay can be described thus: Agonist activity at mouse TRPC6 expressed in HEK293 cells co-expressing Gq11-PLCbeta fused M5 receptor assessed as increase in intracellular calcium level measured for 2.5 mins by Fluo-8-AM dye-based fluorescence assay. The note with it: read-out: EC50.

Assay [3] deals with T2, Short transient receptor potential channel 7 (Homo sapiens, UniProt Q9HCX4).
T2 sequence (Q9HCX4 whole entry): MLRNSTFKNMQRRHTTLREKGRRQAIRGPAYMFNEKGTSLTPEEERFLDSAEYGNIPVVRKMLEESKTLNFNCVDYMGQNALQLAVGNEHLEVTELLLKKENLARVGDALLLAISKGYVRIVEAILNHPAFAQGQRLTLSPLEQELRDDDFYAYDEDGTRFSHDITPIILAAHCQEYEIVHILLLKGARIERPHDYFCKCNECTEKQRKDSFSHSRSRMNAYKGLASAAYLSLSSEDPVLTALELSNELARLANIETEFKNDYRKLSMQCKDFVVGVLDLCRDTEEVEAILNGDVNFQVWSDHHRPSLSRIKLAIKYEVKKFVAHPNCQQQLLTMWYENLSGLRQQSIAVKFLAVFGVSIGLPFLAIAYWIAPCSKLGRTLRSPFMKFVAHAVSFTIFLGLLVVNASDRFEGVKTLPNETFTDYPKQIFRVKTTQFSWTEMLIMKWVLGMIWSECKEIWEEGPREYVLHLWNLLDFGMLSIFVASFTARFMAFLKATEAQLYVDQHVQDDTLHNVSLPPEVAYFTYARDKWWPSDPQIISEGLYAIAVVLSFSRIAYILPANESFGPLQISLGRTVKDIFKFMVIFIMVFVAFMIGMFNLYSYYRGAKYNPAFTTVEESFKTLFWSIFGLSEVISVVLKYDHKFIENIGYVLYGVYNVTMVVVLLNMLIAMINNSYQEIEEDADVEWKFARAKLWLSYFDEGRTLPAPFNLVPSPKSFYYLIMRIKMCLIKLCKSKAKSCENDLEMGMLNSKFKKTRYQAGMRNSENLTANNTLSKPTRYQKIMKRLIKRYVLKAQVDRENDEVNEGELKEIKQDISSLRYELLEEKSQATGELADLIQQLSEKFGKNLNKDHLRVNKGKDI
The assay can be described thus: Agonist activity at human TRPC7 expressed in HEK293 cells assessed as increase in intracellular calcium level measured for 2.5 mins in presence of 2 mM Ca2+ by Fluo8-AM dye-based fluorescence assay.

Chain of Transient receptor potential cation channel subfamily A member 1 (Homo sapiens) (O75762 whole entry): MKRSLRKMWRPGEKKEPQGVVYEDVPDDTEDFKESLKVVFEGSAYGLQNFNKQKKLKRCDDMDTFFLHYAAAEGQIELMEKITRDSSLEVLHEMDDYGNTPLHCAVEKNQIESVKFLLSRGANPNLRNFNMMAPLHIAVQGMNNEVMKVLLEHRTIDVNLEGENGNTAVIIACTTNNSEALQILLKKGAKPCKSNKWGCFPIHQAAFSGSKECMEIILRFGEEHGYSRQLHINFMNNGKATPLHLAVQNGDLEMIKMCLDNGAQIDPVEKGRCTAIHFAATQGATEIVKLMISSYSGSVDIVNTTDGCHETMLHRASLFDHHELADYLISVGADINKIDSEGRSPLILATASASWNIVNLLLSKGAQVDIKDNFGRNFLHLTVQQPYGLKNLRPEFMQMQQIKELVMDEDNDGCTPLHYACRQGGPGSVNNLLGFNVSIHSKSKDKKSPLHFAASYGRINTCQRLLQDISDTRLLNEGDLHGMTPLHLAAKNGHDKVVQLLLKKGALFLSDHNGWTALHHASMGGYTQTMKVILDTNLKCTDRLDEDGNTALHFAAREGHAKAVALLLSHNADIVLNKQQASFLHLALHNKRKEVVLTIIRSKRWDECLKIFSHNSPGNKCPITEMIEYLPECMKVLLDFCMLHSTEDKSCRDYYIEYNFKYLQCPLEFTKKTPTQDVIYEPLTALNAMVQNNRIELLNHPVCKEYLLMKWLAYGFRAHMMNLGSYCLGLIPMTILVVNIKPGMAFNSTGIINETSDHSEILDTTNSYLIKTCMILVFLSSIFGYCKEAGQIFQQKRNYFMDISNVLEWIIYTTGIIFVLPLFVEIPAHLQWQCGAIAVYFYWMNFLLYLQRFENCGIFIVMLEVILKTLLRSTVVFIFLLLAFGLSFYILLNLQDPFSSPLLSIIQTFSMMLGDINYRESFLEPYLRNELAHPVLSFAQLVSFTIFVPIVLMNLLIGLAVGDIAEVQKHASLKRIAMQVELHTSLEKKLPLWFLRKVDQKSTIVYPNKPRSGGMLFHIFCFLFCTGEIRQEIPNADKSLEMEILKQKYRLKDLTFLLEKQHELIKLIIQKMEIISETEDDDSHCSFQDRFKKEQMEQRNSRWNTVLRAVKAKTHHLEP

In the case of `CCOC(=O)N1CCC(c2cc(O)n3nc(C)c(-c4ccc(F)cc4)c3n2)CC1`, the outcome in assay [1] was inactive. Also, the results for the EC50 in assay [2] and in assay [3] were 4660 nM and 497 nM, respectively.

Regarding `CCOC(=O)N1CCC(c2cc(O)n3nc(C)c(-c4ccc(C(F)(F)F)cc4)c3n2)CC1`, the result in assay [1] was inactive. Also, the EC50 (as a rule, the midpoint of the concentration-response curve) in assay [3] is 90 nM.

`Cc1nn2c(O)cc(C3CCN(C(=O)OCc4ccccc4)CC3)nc2c1-c1ccc(F)cc1`: the outcome in assay [1] was inactive. Also, the figures for the EC50 in assay [2] and in assay [3] were 3910 nM and 314 nM, respectively.

In the case of `Cc1nn2c(O)cc(C3CCN(C(=O)OCc4ccccc4)CC3)nc2c1-c1ccc(Cl)cc1`, the result in assay [1] was inactive. The EC50 in assay [2] was determined as 7790 nM; in assay [3], 213 nM.

The values are drawn from ChEMBL document CHEMBL4014306, “Pyrazolopyrimidines as Potent Stimulators for Transient Receptor Potential Canonical 3/6/7 Channels” (J Med Chem, 2017).
